pIC50: −log10 of the molar value. No end group written: not given here.
How the values were obtained:
Assay in all cases: biochemical
Format in all cases: binding
A31 (A*3101) = A31 (A*3101) (Homo sapiens, UniProt P04439, A270S/D185E/E176V/E277Q/F33T/G231S/G80R/H175R/I121M/I218V/I322F/K168Q/L300P/L318F/M331R/P217A/Q94H/R138Q/T323A/T345S/T97I/V358M)
A*3301 = A*3301 (Homo sapiens, UniProt P04439, A270S/D185E/E176V/E277Q/E87N/F33T/G231S/H175R/I121M/I218V/I322F/K168Q/K210R/L300P/L318F/M331R/P217A/Q86R/Q94H/R138Q/T323A/T345S/T97I/V358M/Y195H)
HLA-A3.2 (A*0301) = HLA-A3.2 (A*0301) (Homo sapiens, UniProt P04439)
A*6801 = A*6801 (Homo sapiens, UniProt P04439, A269V/D185E/E176V/E277Q/E87N/F33Y/G231S/I121M/I166T/I218V/L180W/L300P/L318F/N151K/P208A/P217A/Q86R/R169H/T345S)
HLA-A11 (A*1101) = HLA-A11 (A*1101) (Homo sapiens, UniProt P04439, A114D/D185E/E176A/F33Y/L180Q/S129P/T187R)

Compound	pIC50 (A31 (A*3101))	pIC50 (A*3301)	pIC50 (HLA-A3.2 (A*0301))	pIC50 (A*6801)	pIC50 (HLA-A11 (A*1101))
ATLESITKK [Peptide 78.0300]	5.50	< 4.70	7.25	5.71	7.74
LTTNIHPAK [Peptide 88.0347]	6.64	6.24	7.36	7.80	7.74
TLYAEPPK [Peptide 1556.12]	< 4.70	< 4.70	6.13	5.70	6.57
HLFGYSYYK [Peptide 76.0191]	5.75	5.46	7.96	7.85	8.57
EQNEALELK [Peptide 1556.69]	5.64	< 4.70	6.78	4.93	6.89
STAAALYWYR [Peptide 1587.32]	8.62	7.55	7.05	8.39	8.40
SFSELVRPFK [Peptide 1587.03]	8.70	7.62	5.37	5.27	6.26
ISWLGLRSLK [Peptide 9012.0234]	6.58	5.60	7.51	7.41	7.74
NSNASAFLK [Peptide 1587.07]	5.47	6.57	6.37	7.57	7.89
KIDWLIKRIR [Peptide 9017.0248]	7.72	5.17	5.06	< 4.70	5.06
WLIKRIRER [Peptide 9017.0122]	7.07	7.70	5.29	7.30	< 4.70
TTTYSPALNK [Peptide 1556.41]	< 4.70	< 4.70	6.99	7.74	8.60
TALIKPKKR [Peptide 9017.0102]	5.76	6.11	< 4.70	6.53	5.56
ISYGRKKRRQK [Peptide 73.0314]	5.50	< 4.70	7.32	5.35	5.55
CSCC[C@H](NC(=O)[C@@H](NC(=O)[C@H](C)N)[C@@H](C)O)C(=O)N[C@@H](CS)C(=O)N[C@@H](CCCCN)C(=O)N[C@@H](Cc1c[nH]cn1)C(=O)N[C@@H](Cc1ccc(O)cc1)C(=O)N[C@@H](CCCNC(=N)N)C(=O)N[C@@H](CCCNC(=N)N)C(=O)O [Peptide 88.0343]	7.64	7.13	6.66	7.26	7.72
VVPAYNISK [Peptide 88.0397]	< 4.70	< 4.70	7.16	6.00	7.85
ATNKMFCQLAK [Peptide 1556.47]	6.80	< 4.70	7.54	5.79	8.14
VTVYYGVPVWR [Peptide 1525.01]	7.72	6.29	6.25	7.54	7.66
TVQVYFDGNK [Peptide 88.0202]	5.34	4.81	5.96	6.92	7.85
VTVYYGVPIWK [Peptide 1525.02]	6.82	5.87	7.74	8.30	8.64
VTIRVGGQLR [Peptide 1516.07]	7.49	5.03	5.49	7.55	7.77
SVICFVNSK [Peptide 1587.15]	5.72	5.55	6.96	8.07	8.46
NSNAAAFLK [Peptide 88.0342]	5.58	6.18	6.02	7.66	7.72
KSFLKGTPKK [Peptide 88.0149]	6.24	< 4.70	7.32	< 4.70	7.05
YQNFQNADK [Peptide 99.0371]	4.35	< 4.73	5.57	4.70	6.75
KVSEFRWYR [Peptide 78.0281]	8.00	7.49	7.37	7.64	7.82
AVMCRHYKR [Peptide 1587.53]	7.85	7.23	6.67	7.60	7.51
